Data on seven molecules can be found in US20080269161A1, “Compositions and Methods Relating to Mitochondrial Hyperpolarization in Neurological Disease” (priority 2005, published 2008).

“Also recorded” adds a separate entry of the source. Like-named read-outs stand apart in the source and are kept apart here.

Data set [1] concerns CA1 pyramidal neurons in hippocampal slices. The arrangement: species or system rodent. As for the experimental part: CA1 pyramidal neurons were exposed to 1 μM cPAF or vehicle for 30-60min and simultaneously imaged and recorded by whole-cell patch clamp before and after delivery of a high-frequency stimulus (HFS: three 1s, 100 Hz trains, every 20 s) applied to Schaffer collateral axons via a bipolar stimulating electrode planted in the stratum radiatum. (A) Dendrite beading in a cPAF-exposed cell 45min after HFS, with no disruption of dendrite or spine morphology in control cells. […] (C) Excitatory synaptic transmission between Shaffer collateral axons and CA1 pyramidal neurons is strongly potentiated following HFS in control slices. […] (EPSP traces at baseline and 40 min from representative control cell and cPAF-treated beaded cell are at right.) […]
Explant hippocampal slices are exposed to HIV-1 neurotoxins±agents that reverse mitochondrial hyperpolarization. Beading and LTP are then be measured:
Hippocampal slice preparation: Brains from anesthetized P14-28 rodents are rapidly removed and cooled in sucrose based artificial cerebrospinal fluid (ACSF) containing in mM: 110 sucrose, 60 NaCl, 3 KCl, 1.25 NaH2PO4, 28 NaHCO3, 10 D-glucose, 0.5 CaCl2, 7 MgSO4, 0.6 ascorbate. The brains are blocked and fixed to a specimen stage with cyanoacrylate. Coronal slices (250-400 μm in thickness) are cut with a vibroslicer (World Precision Instruments, Fla., USA) equipped with a Peltier cooling system. The middle four to six slices of each hippocampus (with the entorhinal cortex removed) are placed into a holding chamber prior to use.
Measuring dendritic beading and postsynaptic potentials in single CA1 cells in hippocampal slices: Dendritic arbors of individual CA1 pyramidal cells are imaged while simultaneously recording excitatory postsynaptic potentials in the same cell by patch clamp recordings in whole-cell configuration. Recording pipettes ([…] resistance) are pulled from 1.5 mm borosilicate glass using a horizontal Flaming/Brown micropipette puller (Sutter Instrument Co, Calif.), fire-polished, and filled with intracellular recording solution (in mM: KCl 20, potassium gluconate 130, EGTA 0.5, HEPES 10, MgSO4 2, ATP 2.5, GTP 0.5, pH 7.3). In order to visualize dendrites of the recorded cell, Alexa 568 hydrazide (30 μM) is included in the recording pipette and is injected by small negative current pulses for 15-20 min prior to recording in order to fill the dendritic arbor. Hippocampal slices are bathed in artificial CSF (containing, in mM: NaCl 125, KCl 2.5, NaH2PO4 1.25, NaHCO3 25, CaCl2 2, MgCl2 1, D-glucose 25, oxygenated and buffered with 5% CO2). Membrane potentials of CA1 pyramidal cells are recorded in current clamp mode, and postsynaptic potentials are evoked by test pulses of constant-current stimulation applied via a bipolar stimulating electrode placed 50-200 μm away in the stratum radiatum. Bicuculline (10 μM) is included in the bath to isolate excitatory postsynaptic potentials. After at least 10 min of consistent baseline recording, a high-frequency LTP induction stimulus (HFS, consisting of four 1 s, 100 Hz trains delivered every 15 s) is applied. EPSPs are recorded for 60 min following HFS. At the same time, dendrites are imaged at 40× magnification by fluorescence microscopy, using a shutter to limit fluorescent light exposure and prevent phototoxic injury to the slice. Serial images of dendrites are compared to detect development of focal swellings along dendritic shafts following HFS. Cells are scored as beaded if swellings develop along any of their dendrites.
Field potential recording and induction of LTP in hippocampal slices: Single-cell recordings are complemented by extracellular field potential recordings: while single cell recordings allow correlation of electrophysiologic data with dendritic beading in the same cell, extracellular recordings sample responses from populations of dendrites and are less invasive. […]

Data set [2] relates to mitochondrial membrane potential of rat cortical neurons. Format: cell-based. As for the experimental part: Curve fits are non-formulaic software interpolations of the data points.
Changes in mitochondrial function that could be associated with the increased vesicular activity were evaluated. Mitochondria generate the energy for synaptic transmission in the form of ATP, and as a byproduct of this oxidative phosphorylation, they are also one of the primary producers of intracellular ROS. Two key mitochondrial parameters were examined in response to Tat and PAF: 1) mitochondrial membrane potential (ΔΨm) [as assessed by mitochondrial uptake of the lipophilic cationic dyes tetramethylrhodamine ethyl or methyl ester (TMRE or TMRM respectively)], and 2) ATP production (as measured by luciferase assay). The electronegative mitochondrial membrane potential provides the driving force for calcium buffering and ATP production by the mitochondria, and as such, ΔΨm is frequently used as an indicator of mitochondrial health and energetic capacity. Moreover, fluctuations in ΔΨm can trigger mitochondrial release of pro-apoptotic factors, an event most frequently associated with a loss of ΔΨm.
Monitoring alterations in ΔΨm with TMRM: In the relevant methods described herein, changes in mitochondrial membrane potential (ΔΨm) in response to Tat or PAF treatment is assessed by TMRM, which must equilibrate across the plasma membrane before entering the mitochondria; and in whole cell applications dye concentration in the mitochondria is dependent on both plasma membrane potential (ΔΨp) and AΨm. At sufficiently low dye concentrations (TMRM =1 nM, i.e. high cell/dye ratio) and normal membrane potentials, ≧95% of the dye is in the mitochondria, and ≦1% in the media, which results in an approximately 100× sensitivity of the dye to ΔΨm over ΔΨp, given equivalent changes in plasma or mitochondrial membrane potential [Rottenberg, H. and S. Wu, Biochim Biophys Acta, 1998. 1404(3): p. 393-40].
For these methods, primary rodent neurons are treated with reagent under normal culture conditions for the indicated time period, followed by removal of the media, 1×2 minute wash in pre-warmed 37° C. HBSS plus 10 mM glucose and 10 mM HEPES (HBSS+), then incubation in HBSS+ with 1 nM TMRE/M. Following equilibration of the dye for 20 minutes to ensure distribution across the mitochondrial membrane, the cells are imaged while remaining in the 1 nM TMRE/M solution, as is necessary for a continued dye equilibrium state. Random field images are taken using an Olympus IX-70 microscope and 40× objective (fluorescent excitation: 545; emission: 610) and Apogee KX32ME CCD camera, and the mean relative fluorescent unit (RFU) value of the neuronal soma and processes (excluding mitochondria deficient regions) is quantified using Scanalytics IPLab software.

Data set [3] has as its system iNOS expression in human primary monocytes. Kind of data set: Tat-induced iNOS expression in primary monocytes. It is filed as cell-based. Particulars: for prevention of the anti-inflammatory effects of CGS21680 or IB-MECA, respectively: Tat-treated monocytes, iNOS/NO. As for the experimental part: (§1) The effect of adenosine receptor activation on Tat-induced upregulation of iNOS expression and NO release was then determined. […] In contrast, incubation of cells with 1 μM R-PIA (an adenosine A1 receptor agonist) had no effect on Tat-induced iNOS expression or NO release (FIG. 11), implicating the A2A and A3 receptor subtypes in this anti-inflammatory effect. ZM241385 (an A2AR antagonist) or MRS 1220 (an A3R antagonist) could prevent the anti-inflammatory effects of CGS21680 or IB-MECA, respectively.

Data set [4] relates to NO release by human primary monocytes. Kind of data set: Tat-induced nitric oxide release by primary monocytes (Griess reaction). It is filed as cell-based. Particulars: co-treatment with Tat, 8 h; R-PIA 1 μM. On the procedure:
Human primary monocytes were treated with Tat in the presence or absence of the indicated adenosine receptor agonists for 8 h, and nitric oxide levels in the culture medium of the cells were then quantitated using the Griess reaction (Active Motif). Data represent mean+SEM of three experiments.
as §1

A further data set relates to cortical cultures. Kind of data set: Tat-induced apoptotic cell death in cortical cultures.
Data set [5] relates to rat cerebellar granule neurons (CGNs). Kind of data set: Tat-induced apoptosis of cerebellar granule neurons (TUNEL). It is filed as cell-based. Particulars: Tat 500 nM, 48 h. As for the experimental part: CGNs were exposed to HIV-1 Tat (Tat, 500 nM), or vehicle alone (NT), in the presence or absence of the A2A antagonist, ZM241385. After 48 h, cultures were analyzed for the percentage of apoptotic cells using the TUNEL assay. Data represent mean±SEM for one experiment that was performed in triplicate; data are representative of two independent experiments.
CGNs were exposed to HIV-1 Tat (Tat, 500 nM), or vehicle alone (No Tat), in the presence or absence of the A2AR antagonists, ATL455 and ZM241385, or the A2AR agonists ATL313 and CGS21680. After 48 h, cultures were analyzed for the percentage of apoptotic cells using the TUNEL assay. Data represent mean±SEM for one experiment that was performed in triplicate; data are representative of two independent experiments.
(1) Primary rat cerebellar granule neurons (CGNs). CGNs represent a highly homogenous population of primary neurons which are susceptible to Tat and PAF-mediated cell killing and have been used in many of previous studies. CGN cells are isolated according to published procedures [Maggirwar, S. B., et al. 1999. J Neurochem 73:578-86] [Tong, N., et al. 2001. Eur J Neurosci 13:1913-22].
78(4): p. […] 22(6): p. 1102-6].
Primary rat cerebellar granule neurons (CGNs) were exposed to a neurotoxic concentration of HIV-1 Tat, in the presence or absence of an A2AR antagonist (ZM241385). […] It is important to note that CGNs express adenosine A2A receptors [Vacas, J., et al. 2003. Brain Res 992:272-280].
Primary cultures of rat cerebellar granule neurons (CGNs) were exposed to HIV-Tat ([…]) alone or together with increasing doses of the A2AR antagonist ATL-455 or A2A agonists ATL313 or CGS21680. Cells are treated with the test compounds for defined time intervals of up to 48 hours (1, 4, 8, 24, and 48 hours).

Experimental for cortical cultures: Quantifying Cell Death: Cell death is assessed by visualizing fragmented DNA per the TUNEL method as described previously as well [Perry, S. W., et al., J Neurosci Res, 2004. […] Briefly, after treatment in 24 well plates, cells are fixed with Histochoice MB Tissue Fixative (Amresco) then TUNEL-labeled with the ApopTag kit (Chemicon) according to kit instructions. Cells are visualized under Hoffman modulation contrast optics using a 40× objective, and images taken of ten random fields per well from 3 replicate wells per condition. Data is expressed as percent Apoptag-positive neurons [(# Apoptag positive neurons/)(Total neurons))33 100] (or Trypan blue positive neurons where applicable) per field, then field values averaged for a mean cell death value per well. Mean values from 3 or more (see “power” calculations below) wells are averaged for a final mean cell death value for each condition±SEM; the analyses is made without knowledge of the treatment group.

Consider `N#CC(C#N)=NNc1ccc(OC(F)(F)F)cc1` [FCCP, Trifluorocarbonylcyanide Phenylhydrazone], for which, in data set [1], the “Beading Prediction” value is recorded as “Prevented”, the “LTP Prediction” value is “Achieved” and the Δψm entry is on record as “Normalized”. For the same molecule, the Δψm result in data set [1] (FCCP, no neurotoxin (vehicle)) is listed as “Slightly”. In data set [2], the “effect on mitochondrial TMRE/M signal” value is “substantially diminished; also recorded: loss of TMRM signal” and the “effect on ΔΨm” value is “normalizes ΔΨm back to baseline levels but not below”.
For the molecule `CNC(=O)[C@H]1O[C@@H](n2cnc3c(NCc4cccc(I)c4)ncnc32)[C@H](O)[C@@H]1O` [IB-MECA], in data set [3] (co-treatment with Tat), the “inhibition of Tat-induced iNOS expression” value was “roughly 50%”. Besides, the “effect on Tat-induced NO secretion” value in data set [4] is recorded as “complete abrogation”.
Turning to `O=C(Cc1ccccc1)Nc1nc2ccc(Cl)cc2c2nc(-c3ccco3)nn12` [MRS 1220], the “prevention of the anti-inflammatory effects of CGS21680 or IB-MECA, respectively” value in data set [3] was “prevent”.
On to `C[C@H](Cc1ccccc1)Nc1ncnc2c1ncn2[C@@H]1O[C@H](CO)[C@@H](O)[C@H]1O` [R-PIA], for which, in data set [3] (1 μM), the “effect on Tat-induced iNOS expression” value is “no effect”. Moreover, in data set [4], the “effect on Tat-induced NO secretion” value was “no effect”.
`CCCCNC(=O)NS(=O)(=O)c1ccc(C)cc1` [Tolbutamide]: the “toxicity, alone” value in the data set on cortical cultures (tolbutamide 100 μM alone) is given as “no toxicity”. Further, in the data set with cortical cultures (tolbutamide 100 μM, Tat 0.1 or 2.5 μg/ml, 24 hours), the “effect on Tat's induction of apoptotic cell death” value is “attenuating apoptotic cell death; also recorded: partially attenuated”. Also, in data set [2] (tolbutamide 100 μM alone), the “effect on ΔΨm, alone” value was “no significant effect”. In data set [2] (tolbutamide 100 μM, Tat 0.1 or 2.5 μg/ml, 1 and 24 hours), the “effect on Tat mediated rise in ΔΨm” value was “blocked; also recorded: completely prevented”.
For `Nc1nc(NCCc2ccc(O)cc2)nc2nc(-c3ccco3)nn12` [ZM241385, 4(2-[7-Amino-2-(2-furyl)[1,2,4]triazolo[2,3-a][1,3,5]triazin-5-ylamino]ethyl)phenol], in data set [3], the “prevention of the anti-inflammatory effects of CGS21680 or IB-MECA, respectively” value is reported as “prevent”. In addition, in data set [5], the “effect on Tat-induced neuronal apoptosis” value is “protect neurons; also recorded: protects neurons against Tat-induced apoptosis”.
For TNF-α, the “effect on ΔΨm” value in data set [2] (neurotoxin alone) is given as “dose dependent increases”.
